Measured values taken from patent publication US20240165231A1, “CAR-T DELIVERY OF SYNTHETIC PEPTIDE THERAPEUTICS” (THE TRUSTEES OF THE UNIVERSITY OF PENNSYLVANIA, priority 2021, published 2024).
“Also recorded” adds a separate entry of the source.

Legend:
TSA breast cancer cells = assay: PD-L1 as readout of DNA damage response after liposomal PARPi mimetic peptides; format: cell-based; conditions: peptides in liposomes, 48 hours, flow cytometry
Procedure: PARP inhibitor peptides were computationally designed using methods as described in Example 2. Resulting PARP inhibitor (PARPi) mimetic peptides were encapsulated in liposomes and transfected into TSA breast cancer cells in vitro. 48 hours later, PD-L1 was assessed by flow cytometry as a readout of a DNA damage response. […] The PARP inhibitor olaparib was used as a positive control. […] In embodiments, the PARPi mimetic peptides may be introduced into a CAR construct for delivery to the tumor microenvironment via an engineered CAR-T cell.

B16 cells = assay: Cell death after liposomal SMACm6 with or without TNF; format: cell-based
Procedure: SMAC peptides were generated using a rational design strategy. Peptides with the best binding and potency (as measured by induction of cell death) in a dose response assay were selected for testing. SMAC mimetic peptide compositions were encapsulated in liposomes and transfected into B16 or KP (lung adenocarcinoma) cells in vitro at various concentrations in the presence of 20 ng/mL of TNF. 24 hours later, cell death was assessed by flow cytometry. Peptide 6 (SMACm6; SEQ ID NO: 8) was selected for further analysis based on dose response in multiple cell lines.
The SMACm6 mimetic peptides were encapsulated in liposomes and transfected into B16 or KP cells in vitro at various concentrations with or without 20 ng/mL TNF.

STING [1] = assay: BMDC stimulation with liposome-encapsulated STING peptides, CD86 as surrogate for STING activity; format: cell-based, mouse; conditions: peptides in liposomes, 48 hours, flow cytometry
Procedure: Six cGAMP mimetic peptides (also referred to herein as STING peptides) were selected to test for activity. […] BDMCs were prepared by harvesting bone marrow from mouse hindlimbs and culturing in media (RPMI+10% FBS in 30 ng/mL GM-CSF) for 4 days. BMDCs were then stimulated with potential STING agonist peptides encapsulated in liposomes (Lipofectamine 2000) and returned to culture with GM-CSF for 48 hours. BMDCs were then evaluated for expression of CD86 by flow cytometry as a surrogate for STING activity. A schematic of the study design is provided in the left panel of FIG. 15.

STING [2] = assay: ST2-stimulated, Ova-loaded BMDCs (WT or STING KO) co-cultured with OT-I T cells; format: cell-based, mouse; conditions: for OT-I T cell Granzyme B / OT-I T cell IFNγ / OT-I T cell Ki67: 48 hours
Procedure: Activity of the STING agonist peptide ST2 was further characterized. BMDCs from wild type (WT) or STING knock-out (KO) mice were prepared as described above. Following stimulation with ST2, cells were loaded with Ova (SIINFEKL) peptide and then extensively washed to remove residual peptide. OT-I T cells specific for the Ova peptide were then added to BMDC cultures to assess DC activity and ability to stimulate CD8 T cell responses. OT-I T cell expression of Granzyme B (an indicator of cell killing activity), Ki67 (an indicator of cell proliferation), and IFNγ were assessed by flow cytometry 48 hours later.

| Substance | PD-L1 expression (TSA breast cancer cells) | CD86 expression in BMDCs (STING [1]) | other results |
| --- | --- | --- | --- |
| APLGG [Pep2] | increased PD-L1 expression |  |  |
| APLPP [Pep1] | increased PD-L1 expression |  |  |
| AVPIGGGGGGGGGGGGGGGIPVA [SMACm6] |  |  | relative cell death (B16 cells; absence of TNF): no cell death was observed; relative cell death (B16 cells; presence of 20 ng/mL TNF, increasing concentrations): increasing relative cell death; TNF dependence of cell death induction (B16 cells; presence or absence of TNF): dependent on TNF signaling |
| CAPLPPC [Pep1C] | increased PD-L1 expression |  |  |
| CIFEFPGC [ST1C] |  | increased CD86 expression in BMDCs at statistically significant levels over negative control |  |
| IFEFPG [ST1] |  | increased CD86 expression in BMDCs at statistically significant levels over negative control |  |
| LFIKP [ST5] |  | increased CD86 expression in BMDCs at statistically significant levels over negative control |  |
| LFILSG [ST2] |  | increased CD86 expression in BMDCs at statistically significant levels over negative control; also recorded: highest CD86 expression of the peptides tested | OT-I T cell Granzyme B (STING [2]; STING KO BMDCs): not significantly increased over liposome-only controls; OT-I T cell IFNγ (STING [2]; STING KO BMDCs): not significantly increased over liposome-only controls; OT-I T cell Ki67 (STING [2]; STING KO BMDCs): not significantly increased over liposome-only controls; OT-I T cell Granzyme B (STING [2]; WT BMDCs): significantly increased; OT-I T cell IFNγ (STING [2]; WT BMDCs): significantly increased; OT-I T cell Ki67 (STING [2]; WT BMDCs): significantly increased; STING dependence of T cell activation (STING [2]; WT versus STING KO): requires the STING pathway; also recorded: STING dependent |
| MFEYG [ST4] |  | increased CD86 expression in BMDCs at statistically significant levels over negative control |  |
| TFEYSG [ST3] |  | increased CD86 expression in BMDCs at statistically significant levels over negative control |  |
| VPHPP [Pep3] | increased PD-L1 expression |  |  |
